Drawing on ChEMBL document CHEMBL1127998, “Conformationally constrained analogues of diacylglycerol. 9.1 the effect of side-chain orientation on the protein kinase C (PK-C) binding affinity of -lactones” (Bioorg Med Chem Lett, 1994), this text covers Ki for four compounds.

A short description of the assay: Displacement of [3H-20]-phorbol-12-13-dibutyrate from protein kinase C (alpha, beta, gamma) of mouse brain. Type of assay: tissue-based. In general terms: Loss of bound radioactivity is the signal in a displacement assay; it reports binding, not function.

One may read the Ki as the equilibrium dissociation constant of an inhibitor or competing ligand from its target. Higher therefore signals lower affinity.

With `CCCCCCCCCCCCC/C=C1\C(=O)O[C@@H](CO)[C@@H]1OC(C)=O`, the Ki came out at 200 nM.
As for `CCCCCCCCCCCCCC(=O)O[C@@H]1CCC(=O)O[C@H]1CO`, the figure is 2800 nM; as for `CCCCCCCCCCCCC/C=C1/C(=O)O[C@@H](CO)[C@@H]1OC(C)=O`, 600 nM.
The compound `CCCCCCCCCCCCCC(=O)O[C@@H]1CC(=O)O[C@H]1CO` returned a Ki of 2500 nM.
